Marks after values point to notes of the source that are not given here.
Tests used:
Experiment in all cases: Serum-bottle cultivation in YPD, different yeast strains
Type in all cases: cell-based, Saccharomyces cerevisiae
Conditions in all cases: 0.2%
S. cerevisiae ATCC 26603 = system: S. cerevisiae ATCC 26603
Method: (§1) Analytical methods: Cell growth was evaluated by monitoring OD600 and cell dry mass concentration. For dry mass measurements, 1.0 mL of culture was transferred to a pre-dried and pre-weighed 2-mL centrifuge tube. The tubes were centrifuged for 10 min at 14000 rpm using a microcentrifuge, and then the cell pellets were dried in an oven for 3 days at 65° C. The cell dry mass was determined by subtracting the initial tube mass from the dried mass of tube with cells. The concentrations of glucose, ethanol, and glycerol were measured via HPLC (Shimadzu LC20A series) outfitted with a refractive index detector and using an Aminex HPX-87H (300×7.8 mm) organic acid column and Cation H+ guard cartridge (Bio Rad Laboratories, Hercules, CA). The column was maintained at 65° C. and the mobile phase was 5 mM sulfuric acid with a flow rate of 0.6 mL/min. Standard compound solutions were used to calibrate the HPLC. Each sample was analyzed three times by HPLC.
(§2) Procedure: Seven yeast strains (S. cerevisiae ATCC 26603, S. cerevisiae JAY 238, S. cerevisiae JAY 240, S. cerevisiae JAY 241, S. paradoxus JAY 1502, S. kudriavzezii JAY 1503, and S. mikatae JAY 1504) were pre-cultured in 30 mL of YPD medium in 100 mL serum bottle overnight in a shaker at 30° C. and 200 rpm. The precultured yeast cells of each strains were collected and washed twice. Finally, the cell pellet was resuspended in about 10 mL 0.8% (w/v) NaCl and the OD600 measured. TyrOH, PheOH, and TrpOH were added to 30 mL of YPD medium in 100-mL serum bottles at 0.2% (w/v) respectively. The same amount of DMSO was added in YPD medium and served as control to the TrpOH and TyrOH treatments. The prepared yeast cells were added to obtain the initial cell concentration at OD600=0.2. The serum bottles were sealed and cultured in a shaker at 30° C. and 200 rpm for 24 h. There were three biological replicates for each treatment.

S. cerevisiae JAY 238 = system: S. cerevisiae JAY 238
Method: as §1, §2

S. cerevisiae JAY 240 = system: S. cerevisiae JAY 240
Method: as §1, §2

S. cerevisiae JAY 241 = system: S. cerevisiae JAY 241
Method: as §1, §2

[1] = S. cerevisiae ATCC 26603, YPD (Table 9B)
[2] = S. cerevisiae JAY 238, YPD (Table 9B)
[3] = S. cerevisiae JAY 240, YPD (Table 9B)

OCCc1ccccc1 [PheOH, 2-phenylethanol]
Biomass Yield (S. cerevisiae ATCC 26603; S. cerevisiae ATCC 26603): 0.052 ± 0.001 g/g
Biomass yield % change vs. control (S. cerevisiae ATCC 26603; S. cerevisiae ATCC 26603): −22* %
EtOH yield (S. cerevisiae ATCC 26603; S. cerevisiae ATCC 26603): 0.453 ± 0.006 g/g
EtOH yield % change vs. control (S. cerevisiae ATCC 26603; S. cerevisiae ATCC 26603): +1.2%
Glycerol yield (S. cerevisiae ATCC 26603; S. cerevisiae ATCC 26603): 0.054 ± 0.001 g/g
Glycerol yield % change vs. control (S. cerevisiae ATCC 26603; S. cerevisiae ATCC 26603): −25* %
DCW (S. cerevisiae ATCC 26603; S. cerevisiae ATCC 26603, YPD): 1.40 mg
DCW Δ vs. ref (S. cerevisiae ATCC 26603; S. cerevisiae ATCC 26603, YPD): 76.4%
OD600 (S. cerevisiae ATCC 26603; S. cerevisiae ATCC 26603, YPD): 1.27
OD600 Δ vs. ref (S. cerevisiae ATCC 26603; S. cerevisiae ATCC 26603, YPD): 85.6%
Biomass Yield (S. cerevisiae ATCC 26603; [1]): 0.052 + 0.001 g/g
Biomass yield Δ vs. ref (S. cerevisiae ATCC 26603; [1]): −22.3%
Ethanol yield (S. cerevisiae ATCC 26603; [1]): 0.453 ± 0.006 g/g
Ethanol yield Δ vs. ref (S. cerevisiae ATCC 26603; [1]): 1.2%
Glycerol yield (S. cerevisiae ATCC 26603; [1]): 0.054 ± 0.001 g/g
Glycerol yield Δ vs. ref (S. cerevisiae ATCC 26603; [1]): −25.07%
Biomass Yield (S. cerevisiae JAY 238; S. cerevisiae JAY 238): 0.059 ± 0.000 g/g
Biomass yield % change vs. control (S. cerevisiae JAY 238; S. cerevisiae JAY 238): −19* %
EtOH yield (S. cerevisiae JAY 238; S. cerevisiae JAY 238): 0.472 ± 0.017 g/g
Glycerol yield (S. cerevisiae JAY 238; S. cerevisiae JAY 238): 0.041 ± 0.002 g/g
Glycerol yield % change vs. control (S. cerevisiae JAY 238; S. cerevisiae JAY 238): −0.2%
DCW (S. cerevisiae JAY 238; S. cerevisiae JAY 238, YPD): 2.00 mg
DCW Δ vs. ref (S. cerevisiae JAY 238; S. cerevisiae JAY 238, YPD): 78.4%
OD600 Δ vs. ref (S. cerevisiae JAY 238; S. cerevisiae JAY 238, YPD): 65.9%
Biomass Yield (S. cerevisiae JAY 238; [2]): 0.059 + 0.000 g/g
Biomass yield Δ vs. ref (S. cerevisiae JAY 238; [2]): −18.9%
Ethanol yield (S. cerevisiae JAY 238; [2]): 0.472 ± 0.017 g/g
Ethanol yield Δ vs. ref (S. cerevisiae JAY 238; [2]): 9.3%
Glycerol yield (S. cerevisiae JAY 238; [2]): 0.041 ± 0.002 g/g
Glycerol yield Δ vs. ref (S. cerevisiae JAY 238; [2]): −0.22%
Biomass Yield (S. cerevisiae JAY 240; S. cerevisiae JAY 240): 0.060 ± 0.000 g/g
Biomass yield % change vs. control (S. cerevisiae JAY 240; S. cerevisiae JAY 240): −19* %
EtOH yield (S. cerevisiae JAY 240; S. cerevisiae JAY 240): 0.448 ± 0.018 g/g
EtOH yield % change vs. control (S. cerevisiae JAY 240; S. cerevisiae JAY 240): +8.2* %
Glycerol yield (S. cerevisiae JAY 240; S. cerevisiae JAY 240): 0.038 ± 0.002 g/g
Glycerol yield % change vs. control (S. cerevisiae JAY 240; S. cerevisiae JAY 240): +2.2%
DCW (S. cerevisiae JAY 240; S. cerevisiae JAY 240, YPD): 2.20 mg
DCW Δ vs. ref (S. cerevisiae JAY 240; S. cerevisiae JAY 240, YPD): 78.6%
OD600 (S. cerevisiae JAY 240; S. cerevisiae JAY 240, YPD): 1.89
OD600 Δ vs. ref (S. cerevisiae JAY 240; S. cerevisiae JAY 240, YPD): 72.2%
Biomass Yield (S. cerevisiae JAY 240; [3]): 0.060 + 0.000 g/g
Biomass yield Δ vs. ref (S. cerevisiae JAY 240; [3]): −19.1%
Ethanol yield (S. cerevisiae JAY 240; [3]): 0.448 ± 0.018 g/g
Ethanol yield Δ vs. ref (S. cerevisiae JAY 240; [3]): 8.2%
Glycerol yield (S. cerevisiae JAY 240; [3]): 0.038 ± 0.002 g/g
Glycerol yield Δ vs. ref (S. cerevisiae JAY 240; [3]): 2.20%
Biomass Yield (S. cerevisiae JAY 241; S. cerevisiae JAY 241): 0.042 ± 0.001 g/g
Biomass yield % change vs. control (S. cerevisiae JAY 241; S. cerevisiae JAY 241): −28* %
EtOH yield (S. cerevisiae JAY 241; S. cerevisiae JAY 241): 0.399 ± 0.003 g/g
Glycerol yield (S. cerevisiae JAY 241; S. cerevisiae JAY 241): 0.037 ± 0.002 g/g
Glycerol yield % change vs. control (S. cerevisiae JAY 241; S. cerevisiae JAY 241): −31* %
DCW (S. cerevisiae JAY 241; S. cerevisiae JAY 241, YPD): 2.10 mg
DCW Δ vs. ref (S. cerevisiae JAY 241; S. cerevisiae JAY 241, YPD): 80.8%
OD600 (S. cerevisiae JAY 241; S. cerevisiae JAY 241, YPD): 1.45

Reference: US11827917B1, “Methods for the conversion of fermentable sugars to ethanol” (Colorado State University Research Foundation, priority 2020, dated 2023)
